Assay results published in patent publication US9169254B2, “Spiroimidazolone derivative” (Chugai Seiyaku Kabushiki Kaisha, priority 2009, dated 2015).

target: T1, human PTH1 receptor (Homo sapiens, UniProt Q03431); experiment: In vitro cAMP signal activity in HKRK-B7 cells (LLC-PK1 cells overexpressing the human PTH1 receptor); type: cell-based; conditions: HKRK-B7 cells; compound at 1×10^−3 M; cAMP produced as percentage of that produced by hPTH(1-34) at 100 nM
T1 sequence (Q03431 27-593): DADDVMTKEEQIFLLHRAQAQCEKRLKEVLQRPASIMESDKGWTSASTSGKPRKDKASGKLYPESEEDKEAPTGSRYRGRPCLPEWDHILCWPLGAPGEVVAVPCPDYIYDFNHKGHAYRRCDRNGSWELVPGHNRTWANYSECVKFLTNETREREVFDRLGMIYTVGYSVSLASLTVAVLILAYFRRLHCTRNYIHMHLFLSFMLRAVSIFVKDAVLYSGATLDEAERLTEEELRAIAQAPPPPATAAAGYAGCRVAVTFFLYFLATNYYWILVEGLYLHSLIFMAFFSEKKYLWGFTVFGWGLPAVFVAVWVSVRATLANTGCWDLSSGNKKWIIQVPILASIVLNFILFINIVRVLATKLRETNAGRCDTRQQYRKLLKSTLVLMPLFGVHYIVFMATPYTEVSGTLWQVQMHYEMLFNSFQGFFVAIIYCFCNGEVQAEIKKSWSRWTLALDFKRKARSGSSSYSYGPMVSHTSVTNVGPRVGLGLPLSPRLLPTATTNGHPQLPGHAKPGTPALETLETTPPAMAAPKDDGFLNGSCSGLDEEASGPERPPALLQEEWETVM

Question: CC(=O)Nc1ccc(CCS(=O)(=O)N2CCC3(CC2)N=C([C@H]2CC[C@H](/C=C/C(F)F)CC2)NC3=O)c(C)c1 [Compound 916, N-[4-(2-{2-[4-((E)-3,3-difluoro-propenyl)-cyclohexyl]-4-oxo-1,3,8-triaza-spiro[4.5]dec-1-ene-8-sulfonyl}-ethyl)-3-methyl-phenyl]-acetamide] was tested. Which “cAMP production activity (%)” value did it give?
Answer: 59%

Question: With Cc1cc(C(=O)N2CCC(O)(CF)CC2)cc(C)c1/C=C/S(=O)(=O)N1CCC2(CC1)N=C(c1ccc(C(F)(F)F)c(OCC(F)(F)C(F)F)c1)NC2=O [Compound 1274, 8-{(E)-2-[4-(4-fluoromethyl-4-hydroxy-piperidine-1-carbonyl)-2,6-dimethyl-phenyl]-ethenesulfonyl}-2-[3-(2,2,3,3-tetrafluoro-propoxy)-4-trifluoromethyl-phenyl]-1,3,8-triaza-spiro[4.5]dec-1-en-4-one] as the compound, how does the “cAMP production activity (%)” value read?
Answer: 81%

Question: Cc1cc(N(C)C(N)=O)cc(C)c1CCS(=O)(=O)N1CCC2(CC1)N=C(c1cccc(CCCC(F)(F)F)c1)NC2=O [Compound 1359, 1-[3,5-dimethyl-4-(2-{4-oxo-2-[3-(4,4,4-trifluoro-butyl)-phenyl]-1,3,8-triaza-spiro[4.5]dec-1-ene-8-sulfonyl}-ethyl)-phenyl]-1-methyl-urea] was tested. Which “cAMP production activity (%)” value did it give?
Answer: 165%

Question: With CCC[C@H]1CC[C@H](C2=NC3(CCN(S(=O)(=O)c4cccc(Cl)c4)CC3)C(=O)N2)CC1 [Compound 21, 8-(3-chloro-benzenesulfonyl)-2-(4-propyl-cyclohexyl)-1,3,8-triaza-spiro[4.5]dec-1-en-4-one] as the compound, how does the “cAMP production activity (%)” value read?
Answer: 42%

Question: How did the “cAMP production activity (%)” value turn out when Cc1cc(N2C(=O)CNC2=O)cc(C)c1/C=C/S(=O)(=O)N1CCC2(CC1)N=C(C1CCC(C(C)C)CC1)NC2=O (stereo not shown) [Compound 564, 3-(4-{(E)-2-[2-(4-isopropyl-cyclohexyl)-4-oxo-1,3,8-triaza-spiro[4.5]dec-1-ene-8-sulfonyl]-vinyl}-3,5-dimethyl-phenyl)-imidazolidine-2,4-dione] was run?
Answer: 68%

Question: Which “cAMP production activity (%)” value does the source give for O=C1NC(c2ccncc2)=NC12CCN(S(=O)(=O)c1cccc(Cl)c1)CC2 [Compound 2, 8-(3-chloro-benzenesulfonyl)-2-pyridin-4-yl-1,3,8-triaza-spiro[4.5]dec-1-en-4-one] here?
Answer: 1.0%

Question: Cc1cc(S(=O)(=O)NCC(=O)N(C)C)ccc1/C=C/S(=O)(=O)N1CCC2(CC1)N=C(c1cccc(C(F)(F)F)c1)NC2=O [Compound 590, N,N-Dimethyl-2-(3-methyl-4-{(E)-2-[4-oxo-2-(3-trifluoromethyl-phenyl)-1,3,8-triaza-spiro[4.5]dec-1-ene-8-sulfonyl]-vinyl}-benzenesulfonylamino)-acetamide] was tested. Which “cAMP production activity (%)” value did it give?
Answer: 70%

Question: For O=C1NC(C2CCCCC2)=NC12CCN(S(=O)(=O)CCCCc1cccc3[nH]ccc13)CC2 [Compound 263, 2-cyclohexyl-8-[4-(1H-indol-4-yl)-butane-1-sulfonyl]-1,3,8-triaza-spiro[4.5]dec-1-en-4-one], which “cAMP production activity (%)” value is on record?
Answer: 41%

Question: With Cc1cc(S(=O)(=O)N2CCC3(CC2)N=C(C2CCCCC2)NC3=O)c(C)s1 [Compound 64, 2-cyclohexyl-8-(2,5-dimethyl-thiophene-3-sulfonyl)-1,3,8-triaza-spiro[4.5]dec-1-en-4-one] as the compound, how does the “cAMP production activity (%)” value read?
Answer: 45%

Question: Cc1cc(C(=O)N2CCC(O)(CF)CC2)cc(C)c1/C=C/S(=O)(=O)N1CCC2(CC1)N=C(c1ccc(F)c(OCCCC(F)(F)C(F)(F)F)c1)NC2=O [Compound 1263, 8-{(E)-2-[4-(4-fluoromethyl-4-hydroxy-piperidine-1-carbonyl)-2,6-dimethyl-phenyl]-ethenesulfonyl}-2-[4-fluoro-3-(4,4,5,5,5-pentafluoro-pentyloxy)-phenyl]-1,3,8-triaza-spiro[4.5]dec-1-en-4-one] was tested. Which “cAMP production activity (%)” value did it give?
Answer: 73%

Question: Cc1cc(C(=O)N2CCC2)ccc1CCS(=O)(=O)N1CCC2(CC1)N=C(c1cccc(C(F)(F)F)c1)NC2=O [Compound 381, 8-{2-[4-(azetidine-1-carbonyl)-2-methyl-phenyl]-ethanesulfonyl}-2-(3-trifluoromethyl-phenyl)-1,3,8-triaza-spiro[4.5]dec-1-en-4-one] was tested. Which “cAMP production activity (%)” value did it give?
Answer: 72%

Question: For O=C1NC([C@H]2C[C@H]3CC[C@@H]2C3)=NC12CCN(S(=O)(=O)c1cccc(Cl)c1)CC2 [Compound 22, 2-(1R,2S,4S)-bicyclo[2.2.1]hept-2-yl-8-(3-chloro-benzenesulfonyl)-1,3,8-triaza-spiro[4.5]dec-1-en-4-one], which “cAMP production activity (%)” value is on record?
Answer: 43%

Question: How did the “cAMP production activity (%)” value turn out when O=C1NC(C2CCCCC2)=NC12CCN(S(=O)(=O)CC(O)c1cccc3c1ccn3C[C@H](O)CO)CC2 (stereo partly drawn) [Compound 1374, 2-Cyclohexyl-8-{2-[1-((S)-2,3-dihydroxy-propyl)-1H-indol-4-yl]-2-hydroxy-ethanesulfonyl}-1,3,8-triaza-spiro[4.5]dec-1-en-4-one] was run?
Answer: 33%

Question: Cc1cc(N2C(=O)CCC2CO)ccc1/C=C/S(=O)(=O)N1CCC2(CC1)N=C(c1cccc(C(F)(F)F)c1)NC2=O (stereo in doubt) [Compound 221, 8-{(E)-2-[4-((R)-2-hydroxymethyl-5-oxo-pyrrolidin-1-yl)-2-methyl-phenyl]-ethenesulfonyl}-2-(3-trifluoromethyl-phenyl)-1,3,8-triaza-spiro[4.5]dec-1-en-4-one] was tested. Which “cAMP production activity (%)” value did it give?
Answer: 103%

Question: How did the “cAMP production activity (%)” value turn out when O=C1NC(c2cccc(OC(F)(F)F)c2)=NC12CCN(S(=O)(=O)CCc1cccc3c1OC(F)(F)O3)CC2 [Compound 307, 8-[2-(2,2-difluoro-benzo[1,3]dioxol-4-yl)-ethanesulfonyl]-2-(3-trifluoromethoxy-phenyl)-1,3,8-triaza-spiro[4.5]dec-1-en-4-one] was run?
Answer: 58%

Question: How did the “cAMP production activity (%)” value turn out when COC(=O)CCC(=O)N1CCN(C(=O)c2cc(C)c(/C=C/S(=O)(=O)N3CCC4(CC3)N=C(c3cccc(OC(F)(F)F)c3)NC4=O)c(C)c2)CC1 [Compound 448, 4-[4-(3,5-dimethyl-4-{(E)-2-[4-oxo-2-(3-trifluoromethoxy-phenyl)-1,3,8-triaza-spiro[4.5]dec-1-ene-8-sulfonyl]-vinyl}-benzoyl)-piperazin-1-yl]-4-oxo-butyric acid methyl ester] was run?
Answer: 64%

Question: Which “cAMP production activity (%)” value does the source give for Cc1cc(C(=O)N2CCC(O)(CF)CC2)cc(C)c1/C=C/S(=O)(=O)N1CCC2(CC1)N=C(c1ccc(Cl)c(Cl)c1)NC2=O [Compound 1257, 2-(3,4-dichloro-phenyl)-8-{(E)-2-[4-(4-fluoromethyl-4-hydroxy-piperidine-1-carbonyl)-2,6-dimethyl-phenyl]-ethenesulfonyl}-1,3,8-triaza-spiro[4.5]dec-1-en-4-one] here?
Answer: 98%

Question: CN(C)C(=O)c1cccc(-c2ccc(S(=O)(=O)N3CCC4(CC3)N=C(c3cccc(C(F)(F)F)c3)NC4=O)s2)c1 [Compound 330, N,N-dimethyl-3-{5-[4-oxo-2-(3-trifluoromethyl-phenyl)-1,3,8-triaza-spiro[4.5]dec-1-ene-8-sulfonyl]-thiophen-2-yl}-benzamide] was tested. Which “cAMP production activity (%)” value did it give?
Answer: 23%

Question: Which “cAMP production activity (%)” value does the source give for Cc1cc(C(=O)N(C)CC(N)=O)cc(C)c1/C=C/S(=O)(=O)N1CCC2(CC1)N=C(c1cccc(C(F)(F)F)c1)NC2=O [Compound 392, N-carbamoylmethyl-3,5,N-trimethyl-4-{(E)-2-[4-oxo-2-(3-trifluoromethyl-phenyl)-1,3,8-triaza-spiro[4.5]dec-1-ene-8-sulfonyl]-vinyl}-benzamide] here?
Answer: 83%

Question: How did the “cAMP production activity (%)” value turn out when CN(C)C(=O)c1ccc(CCCS(=O)(=O)N2CCC3(CC2)N=C(C2CCCCC2)NC3=O)cc1 [Compound 324, 4-[3-(2-cyclohexyl-4-oxo-1,3,8-triaza-spiro[4.5]dec-1-ene-8-sulfonyl)-propyl]-N,N-dimethyl-benzamide] was run?
Answer: 30%

Question: How did the “cAMP production activity (%)” value turn out when Cc1cc(CO)cc(C)c1/C=C/S(=O)(=O)N1CCC2(CC1)N=C(C1CCC(CCC(F)(F)F)CC1)NC2=O (stereo not shown) [Compound 553, 8-[(E)-2-(4-hydroxymethyl-2,6-dimethyl-phenyl)-ethenesulfonyl]-2-[4-(3,3,3-trifluoro-propyl)-cyclohexyl]-1,3,8-triaza-spiro[4.5]dec-1-en-4-one] was run?
Answer: 80%

Question: CCOCC1CCC(C2=NC3(CCN(S(=O)(=O)CCc4ccc(NC(C)=O)cc4C)CC3)C(=O)N2)CC1 (stereo not shown) [Compound 910, N-(4-{2-[2-(4-ethoxymethyl-cyclohexyl)-4-oxo-1,3,8-triaza-spiro[4.5]dec-1-ene-8-sulfonyl]-ethyl}-3-methyl-phenyl)-acetamide] was tested. Which “cAMP production activity (%)” value did it give?
Answer: 64%

Question: For Cc1cc2ccc1CCS(=O)(=O)N1CCC3(CC1)N=C(NC3=O)c1cc(cc(C(F)(F)F)c1)OCCCCCCCCCCN(C)C2=O [Compound 1418], which “cAMP production activity (%)” value is on record?
Answer: 36%

Question: Which “cAMP production activity (%)” value does the source give for Cc1cc(N(C)C(N)=O)cc(C)c1CCS(=O)(=O)N1CCC2(CC1)N=C(CCCCCCc1ccccc1)NC2=O [Compound 1349, 1-(3,5-dimethyl-4-{2-[4-oxo-2-(6-phenyl-hexyl)-1,3,8-triaza-spiro[4.5]dec-1-ene-8-sulfonyl]-ethyl}-phenyl)-1-methyl-urea] here?
Answer: 98%

Question: With Cc1cc(NC[C@H](O)CO)ccc1CCS(=O)(=O)N1CCC2(CC1)N=C(C1CCCCC1)NC2=O [Compound 321, 2-Cyclohexyl-8-{2-[4-((S)-2,3-dihydroxy-propylamino)-2-methyl-phenyl]-ethanesulfonyl}-1,3,8-triaza-spiro[4.5]dec-1-en-4-one] as the compound, how does the “cAMP production activity (%)” value read?
Answer: 55%
